# Test results as given in patent US7358076B2, “Sublancin lantibiotic produced by Bacillus subtilis 168” (The University of Maryland, priority 1997, dated 2008).
# Legend:
# B. cereus T spores [1] = conditions: cited from earlier work
# B. cereus T spores [2] = experiment: halo assay on agar plates sprayed with spores, extended incubation; assay type: cell-based, Bacillus cereus; conditions: lawns from sprayed B. cereus T spores, incubation for several days, data not shown
# Protocol: Two methods were employed to assay the activity of sublancin 168; a halo assay on plates, and a liquid assay in culture tubes. Both methods used Bacillus cereus T spores as the test organism. 250 mg of spores, prepared as previously described (12), were suspended in 30 mL of distilled water with a glass homogenizer, heat-shocked at 65° C. for 2 hr, centrifuged, and resuspended in 50% ethanol. This suspension was sprayed onto the surface of Medium A-containing agar plates using a Sigma spray unit (St. Louis Mo.). Prior to spraying, 10-20 μL volumes of serial dilutions of purified sublancin were spotted onto the plate. […] growth of the spores, and the diameters of the halos caused by sublancin inhibition were measured, and the minimum amount of peptide that was required to give an observable halo was noted. For the liquid assay, heat-shocked spores were suspended in sterile water to a final concentration of 2 mg/mL, and then added to culture tubes containing 1% BACTO®-tryptone, 0.1 M TRIS®-Pi, pH 6.8. Prior to adding the spores, serial dilutions of sublancin were added to the tubes. The final concentration of spores was 0.1 mg/mL. The tubes were incubated at 37° C. for 3 hr, using sufficient shaking to keep the spores well suspended. […]
# The ability of sublancin to inhibit bacterial spore outgrowth was also determined. […]
# B. cereus T spores [3] = conditions: from reference (30); cited from earlier work
structure (smiles),measurement,setting,value
C=C1NC(=O)CC[C@@H](C(=O)O)NC(=O)[C@H](NC(=O)[C@H](CCCCN)NC(=O)[C@@H](N)Cc2c[nH]c3ccccc23)CSC[C@@H](C(=O)N[C@@H]2C(=O)N3CCC[C@H]3C(=O)NCC(=O)N[C@H](C(=O)N[C@H](C(=O)N[C@@H]3C(=O)NCC(=O)N[C@@H](C)C(=O)N[C@@H](CC(C)C)C(=O)N[C@@H](CCC(N)=O)C(=O)N/C(=C/C)C(=O)N[C@H](C(=O)N[C@@H](Cc4ccccc4)C(=O)N[C@@H](CC(C)C)C(=O)N[C@@H](CCC(N)=O)C(=O)N[C@@H]4C(=O)N[C@@H](CC(C)C)C(=O)N[C@H]5C(=O)N[C@@H](CSC4C)C(=O)NC(=O)[C@H](CC(N)=O)N[C@H](C(=O)N[C@@H](CCCCN)C(=O)N[C@H](C(=O)NC(=C)C(=O)N[C@@H](CCCCN)C(=O)O)[C@@H](C)CC)CSC5C)CSC3C)C(C)C)CSC2C)N[C@@H](CC(C)C)C(=O)NC1=O (stereo partly shown) [subtilin],concentration required to inhibit outgrowth of these same spores,"B. cereus T spores [1]; B. cereus T spores, from references (27,29)",80 nM
same,"corresponding ratio, spore outgrowth inhibition versus inhibition of exponentially growing cells","B. cereus T spores [1]; comparison value for subtilin, same methods as reference (27)",30 fold
same,appearance of halos after extended incubation of the plates,B. cereus T spores [2],remained completely clear
same,"binding and inhibition of spores, reversibility",B. cereus T spores [3],irreversibly
